Experimental data: US20230017045A1, “PYRIDINE AND PYRIMIDINE CARBOXYLATE HERBICIDES AND METHODS OF USE THEREOF” (Dow AgroSciences LLC, priority 2017, published 2023)
Read-outs that look alike come from different tables or passages of the source.

System: test plant species
Test: Post-emergent herbicidal activity test (greenhouse, foliar spray, visual growth reduction)
Format: in vivo
Conditions: post-emergence, 336 h, 140 g ai/ha
Method: Post-emergent Test: Seeds or nutlets of the desired test plant species were planted in Sun Gro Metro-Mix® 360 planting mixture, which typically has a pH of 6.0 to 6.8 and an organic matter content of about 30 percent, in plastic pots with a surface area of 64 square centimeters. In some aspects, to ensure good germination and healthy plants, a fungicide treatment and/or other chemical or physical treatment was applied. The plants were grown for 7-21 d in a greenhouse with an approximate 15 h photoperiod which was maintained at 23-29° C. during the day and 22-28° C. during the night. Nutrients and water were added on a regular basis and supplemental lighting was provided with overhead metal halide 1000-Watt lamps as necessary. Plants were used for testing when they reached the first or second true leaf stage. A weighed amount, determined by the highest rate to be tested, of each test compound was placed in a 25 mL glass vial and was dissolved in 4 mL of a 97:3 v/v mixture of acetone and DMSO to obtain concentrated stock solutions. […] The concentrated stock solutions obtained were diluted with 20 mL of an aqueous mixture containing acetone, water, isopropyl alcohol, DMSO, […] crop oil concentrate, and X-77 surfactant in a 48.5:39:10:1.5:1.0:0.02 v/v ratio to obtain spray solutions containing the application rate. Compound requirements are based upon a 12 mL application volume at a rate of 187 liters per hectare (L/ha). Formulated compounds were applied to the plant material with an overhead Mandel track sprayer equipped with […] nozzles calibrated to deliver 187 L/ha over an application area of 0.64 square meters at a spray height of 18 inches (43 cm) above the average plant canopy height. Control plants were sprayed in the same manner with the solvent blank. The treated plants and control plants were placed in a greenhouse as described above and watered by subirrigation to prevent wash-off of the test compounds. After 14 d, the condition of the test plants as compared with that of the nontreated and control plants was determined visually and scored on a scale of 0 to 100 percent where 0 corresponds to no injury and 100 corresponds to complete control. In the reporting of the results, Table A: Percent Growth Reduction Conversion Table was used.

[1] = ALOMY: blackgrass (Alopecurus myosuroides), 14 days after application, read-out: Visual Growth Reduction (%) 14 Days After Application, ALOMY
[2] = AMARE: redroot pigweed (Amaranthus retroflexus), 14 days after application, read-out: Visual Growth Reduction (%) 14 Days After Application, AMARE
[3] = AVEFA: wild oat (Avena fatua), 14 days after application, read-out: Visual Growth Reduction (%) 14 Days After Application, AVEFA
[4] = CHEAL: lambsquarters (Chenopodium album), 14 days after application, read-out: Visual Growth Reduction (%) 14 Days After Application, CHEAL
[5] = CIRAR: canada thistle (Cirsium arvense), 14 days after application, read-out: Visual Growth Reduction (%) 14 Days After Application, CIRAR
[6] = CYPES: yellow nutsedge (Cyperus esculentus), 14 days after application, read-out: Visual Growth Reduction (%) 14 Days After Application, CYPES
[7] = DIGSA: crabgrass (Digitaria sanguinalis), 14 days after application, read-out: Visual Growth Reduction (%) 14 Days After Application, DIGSA
[8] = ECHCG: barnyardgrass (Echinochloa crus-galli), 14 days after application, read-out: Visual Growth Reduction (%) 14 Days After Application, ECHCG
[9] = IPOHE: ivy-leaf morning glory (Ipomoea hederacea), 14 days after application, read-out: Visual Growth Reduction (%) 14 Days After Application, IPOHE
[10] = KCHSC: kochia (Bassia scoparia), 14 days after application, read-out: Visual Growth Reduction (%) 14 Days After Application, KCHSC
[11] = ORYSA: rice (Oryza sativa), 14 days after application, read-out: Visual Growth Reduction (%) 14 Days After Application, ORYSA
[12] = SETFA: giant foxtail (Setaria faberi), 14 days after application, read-out: Visual Growth Reduction (%) 14 Days After Application, SETFA
[13] = SORVU: grain sorghum (Sorghum vulgare), 14 days after application, read-out: Visual Growth Reduction (%) 14 Days After Application, SORVU
[14] = STEME: common chickweed (Stellaria media), 14 days after application, read-out: Visual Growth Reduction (%) 14 Days After Application, STEME
[15] = TRZAS: wheat, spring (Triticum aestivum), 14 days after application, read-out: Visual Growth Reduction (%) 14 Days After Application, TRZAS
[16] = blackgrass (Alopecurus myosuroides), 14 Days After Application, read-out: Visual Growth Reduction (%) ALOMY
[17] = canada thistle (Cirsium arvense), 14 Days After Application, read-out: Visual Growth Reduction (%) CIRAR
[18] = crabgrass (Digitaria sanguinalis), 14 Days After Application, read-out: Visual Growth Reduction (%) DIGSA
[19] = lambsquarters (Chenopodium album), 14 Days After Application, read-out: Visual Growth Reduction (%) CHEAL
[20] = redroot pigweed (Amaranthus retroflexus), 14 Days After Application, read-out: Visual Growth Reduction (%) AMARE
[21] = wild oat (Avena fatua), 14 Days After Application, read-out: Visual Growth Reduction (%) AVEFA
[22] = yellow nutsedge (Cyperus esculentus), 14 Days After Application, read-out: Visual Growth Reduction (%) CYPES

Row | SMILES | pest or weed control at 140 g/ha [1] [%] | pest or weed control at 140 g/ha [2] [%] | pest or weed control at 140 g/ha [3] [%] | pest or weed control at 140 g/ha [4] [%] | pest or weed control at 140 g/ha [5] [%] | pest or weed control at 140 g/ha [6] [%] | pest or weed control at 140 g/ha [7] [%] | pest or weed control at 140 g/ha [8] [%] | pest or weed control at 140 g/ha [9] [%] | pest or weed control at 140 g/ha [10] [%] | pest or weed control at 140 g/ha [11] [%] | pest or weed control at 140 g/ha [12] [%] | pest or weed control at 140 g/ha [13] [%] | pest or weed control at 140 g/ha [14] [%] | pest or weed control at 140 g/ha [15] [%] | pest or weed control at 140 g/ha [16] [%] | pest or weed control at 140 g/ha [17] [%] | pest or weed control at 140 g/ha [18] [%] | pest or weed control at 140 g/ha [19] [%] | pest or weed control at 140 g/ha [20] [%] | also measured
1 | COC(=O)c1nc(-c2ccc(C(F)(F)F)cc2Cl)ncc1Cl [F105, Methyl 5-chloro-2-(2-chloro-4-(trifluoromethyl)phenyl)pyrimidine-4-carboxylate] | 0 to 29 | 95 to 100 | 0 to 29 | 85 to 94 | 85 to 94 | 0 to 29 | 85 to 94 | 60 to 74 | 95 to 100 | 60 to 74 | 0 to 29 | 60 to 74 | 75 to 84 | 0 to 29 | 0 to 29 | – | – | – | – | – | –
2 | COC(=O)c1nc(-c2ccc(OC(C)(C)C)cc2Cl)ccc1Cl [F36, Methyl 6-(4-(tert-butoxy)-2-chlorophenyl)-3-chloropicolinate] | 0 to 29 | 0 to 29 | 0 to 29 | 0 to 29 | 0 to 29 | 0 to 29 | 0 to 29 | 0 to 29 | 0 to 29 | 0 to 29 | 0 to 29 | 0 to 29 | 0 to 29 | 0 to 29 | 0 to 29 | – | – | – | – | – | –
3 | COc1c(-c2nc(C(=O)O)c(Cl)cc2F)ccc(C(F)F)c1F [F230, 3-Chloro-6-(4-(difluoromethyl)-3-fluoro-2-methoxyphenyl)-5-fluoropicolinic acid] | – | – | – | – | – | – | – | 60 to 74 | 95 to 100 | 95 to 100 | 0 to 29 | 30 to 44 | 60 to 74 | 0 to 29 | 0 to 29 | 0 to 29 | 95 to 100 | 0 to 29 | 95 to 100 | 95 to 100 | pest or weed control at 140 g/ha [21]: 0 to 29%; pest or weed control at 140 g/ha [22]: 0 to 29%
4 | COC(=O)c1nc(-c2ccc(C3(C#N)CC3)cc2Cl)c(Cl)cc1Cl [F238, Methyl 3,5-dichloro-6-(2-chloro-4-(1-cyanocyclopropyl)phenyl)picolinate] | – | – | – | – | – | – | – | 0 to 29 | 75 to 84 | 0 to 29 | 0 to 29 | 45 to 59 | 60 to 74 | 0 to 29 | 0 to 29 | 0 to 29 | 60 to 74 | 60 to 74 | 95 to 100 | 45 to 59 | pest or weed control at 140 g/ha [21]: 0 to 29%; pest or weed control at 140 g/ha [22]: 0 to 29%
